Assay results published in a melting point compilation (Tetko et al.; mined from patent text by program, amines drawn as free bases though some values may be those of a salt).

melting point [°C] | Compound
84.5 to 85 | CCCCNC(=O)N1Cc2ccccc2CCC1=O
143 to 145 | NC(=O)c1cc(CO)ccc1[N+](=O)[O-]
168 to 178 | CC(=O)OC1CCC2(C)C(CCC3C2CCC2(C)C3CCC2C(C)(O)C#N)C1 (stereo unspecified)
222 to 225 | CN(C)Cc1cccc(-c2[nH]c3cccc4c3c2CCNC4=O)c1
173 to 175 | O=C(NCc1ccc(Cl)cc1)c1cn2c(CSc3ccccc3)cc3cc(CN4CCOCC4)cc(c1=O)c32
148 | O=C(NC(CS)Cc1ccccc1)N1CCN(c2ccc(Cl)cc2)CC1 (single isomer, unassigned; (+))
143 to 145 | NCC1CN(c2cc(F)c(-c3cccnc3)c(F)c2)C(=O)O1 (stereo unspecified)
230 to 233 | CC(O)=C(C#N)C(=O)Nc1ccc(C(F)(F)F)cc1
228 to 232 | N#Cc1ccc(C(=O)N2CCc3c([nH]c4ccccc34)C2)cc1
222 to 223 | N#Cc1ccc(-c2ccc(C#N)c(Cn3cncn3)c2)cc1
113 to 116 | Nc1cc2cccnc2c(Cc2ccccc2)n1
61 to 64 | Nc1cccc(CCO)c1
126 to 127 | CCOC(=O)/C=C/c1ccc(/C=C(\C)c2ccc3c(c2)C(C)(C)CCC3(C)C)cc1
175 | FC(F)(F)c1ccc(-c2cc(C(F)(F)F)n3ncc(C#Cc4cncnc4)c3n2)cc1
134 to 137 | COc1cc(C(=O)NS(=O)(=O)c2ccccc2Cl)ccc1Cn1cc(CCC(=O)N(C)C)c2ccc(CCC(=O)N(C)C)cc21
115 to 117 | CCOC(=O)/C=C(C)/C(F)=C/C=C(C)/C=C/c1c(C)cc(OC)c(C)c1Cl
97 to 98 | CN(C)c1ccc(/C=C/c2c(F)cccc2F)c(N)c1
71 to 74 | Oc1cc(Br)ccc1Br
204 to 206 | O=C(Nc1ccc(-n2ncn(-c3ccc(OCC(F)(F)C(F)F)cc3)c2=O)cc1)Oc1ccccc1
209 | CC(=O)C1=C(O)C(=C(C)Nc2cccc(NS(=O)(=O)c3ccccc3)c2)C(=O)OC1=O
218 to 220 | CCCOc1ccc(NC(=O)N2CCN(c3ncnc4cc(OC)c(OC)cc34)CC2)cc1
170 to 172 | Cn1cc(C2=C(c3c4n(c5ccccc35)CCN(C(=O)CNC(=O)C(F)(F)F)C4)C(=O)NC2=O)c2ccccc21
54 to 56 | ClCCOc1ccc(Br)cc1

melting point [°C] | Compound
150 to 151 | Cc1nc(-c2cn(CC(F)(F)c3ccccc3)nn2)sc1C(=O)NCc1cccnc1
160 to 162 | O=C1N(Cc2ncon2)c2ccccc2C12COc1cc3c(cc12)OCO3 (stereo unspecified)
210 to 212 | O=C1N(C(c2ccccc2)c2ccccc2)c2ccccc2C1(O)c1cc2c(cc1O)OCCO2 (stereo unspecified)
157 to 160 | CCN(C(=O)c1ccccc1C(=O)c1ccccc1)C(C)(C)CNS(=O)(=O)c1ccc(C)cc1
221 to 222 | Cc1nc(N)nc(N)c1-c1ccc2ccccc2c1
223 to 226 | O=S1(=O)N=C(NCc2ccccc2)Nc2cc(Cl)sc21
202 to 204 | COc1ccccc1NC(=O)N1CCc2cc(S(=O)(=O)N3CC(c4ccccc4)NC3=O)ccc21 (stereo unspecified)
114 to 116 | CC(C)(C)OC(=O)N1CCN(c2nccs2)CC1
159 to 160 | O=C(Cc1ccsc1)Nc1ncc(Cl)cc1Cl
141 to 143 | O=C1CC(Cl)=C(Cl)c2nc3cc(Cl)ccc3c(NCc3ccccc3)c21
187 to 188 | COc1cccc2nc3c(c(N)c12)CCCC3
220 to 222 | CNCC(=O)Nc1ccc(C2=NN(C(C)=O)C(C)Cc3cc4c(cc32)OCO4)cc1 (stereo unspecified)
163 to 168 | CC(=O)Nc1ccc2c(c1)CC2OC#N (stereo unspecified)
108 | CS(=O)(=O)c1ccccc1-c1cc(CCO)nn1C1CCCCC1
163 to 166 | O=C(c1cccs1)c1cnn2c(-c3cccc(NC/C=C/c4ccc([N+](=O)[O-])cc4)c3)ccnc12
51 to 53 | COc1ccc2cc(C(C)C(=O)OCC(=O)NCCCO[N+](=O)[O-])ccc2c1 (stereo unspecified)
153 to 154 | O=C(c1ccc([N+](=O)[O-])cc1)N1Cc2ccccc2-c2ccccc21
64 to 67 | COC(=O)C1=Cc2cccc(OCc3ccccc3)c2CC1
143 to 145 | CC[C@H]1CN(c2c(F)cc3c(=O)c(C(=O)O)cn([C@@H]4C[C@@H]4F)c3c2OC)C[C@H]1NC
73 | CC(C)CCNS(=O)(=O)c1cc(C(=O)NC2CCc3ccccc32)ccc1Oc1ccccc1 (stereo unspecified)
166 to 168 | CC(C)C(NC(=O)OC(C)(C)C)C(=O)OC(O)C(=O)C1C(C)CC2C3CC(F)C4=CC(=O)C=CC4(C)C3C(O)CC21C (stereo unspecified)
159 to 162 | O=C(CCCCl)Nc1nnc(-c2ccccc2)s1
165 to 169 | CCc1nc2c(cnn2CC)c(NC2CCOCC2)c1CNC(=O)c1cccc(C(=O)NCc2ccc(F)c(-c3cccc(CN4CCN(C(C)C)CC4)c3)c2)c1

melting point [°C] | Compound
158 to 160 | CCCNC(=O)c1cnc2cccc(C)n2c1=O
126 to 127 | Cc1cc(C)nc(N(C(=O)C(Cl)(Cl)Cl)c2ccccc2)n1
73 to 75 | COc1ccc(Br)cc1OC(=O)c1ccccc1
72 | CCS(=O)(=O)N(C)C1CCN(c2ccccc2)c2ccccc21 (stereo unspecified)
131 to 132 | O=C(Nc1nc(-c2ccco2)c(C(=O)C2CCOCC2)s1)c1ccc(F)cc1
310 | CS(=O)(=O)c1ccc(-c2ccc3cnc(Nc4ccc(C5CCN(CC(N)=O)CC5)cc4)nn23)cc1
183 to 185 | O=S(=O)(c1ccc(F)cc1)N1CCC(Nc2nc(OCC(F)(F)F)nc(-c3ccc(F)cc3)n2)CC1
177 to 179 | O=C(CCc1ccccc1)Nc1cc(C(=O)NCc2ccccc2)ccn1
136 to 137 | COC(C)(C)O[C@H]1C(=O)N[C@H]1c1ccccc1
179 to 180 | CCc1cc(S(=O)(=O)N(C)C)ccc1-c1cnc2[nH]c(CCc3cc(OC)ccn3)nc2c1
115 to 125 | COc1c(N2CCC(O)C(CO)C2)c(F)cc2c(=O)c(C(=O)O)cn(C3CC3)c12 (stereo unspecified)
165 to 167 | COc1cc(Nc2c(C#N)cnc3cc(OCCN4CCN(C)CC4)c(OC)cc23)c(Cl)cc1Cl
183 to 187 | Cc1cc(C)cc(NC(=O)Cc2ccc(OC(C)C(=O)O)cc2)c1 (stereo unspecified)
48 to 52 | COc1ccc(S(=O)(=O)N(Cc2ccccc2)[C@H](CC(C)C)C(=O)NO)cc1
152 to 156 | CCNc1nc(SC)ncc1CO
115 to 128 | COc1ccccc1NC(=O)Nc1nc(Nc2ccccc2-c2ccccc2)nc(N(CCC(=O)O)Cc2cccc(F)c2)n1
132 to 134 | O=C1OC(Cl)(C(=O)OCc2ccc([N+](=O)[O-])cc2)c2ccccc21 (stereo unspecified)
250 to 253 | Nc1nc(C2CCN(C(=O)Cc3ccc(O)c(O)c3)CC2)c2ccccc2n1
115 to 117 | OC/C=C(\c1ccccc1)c1ccc(C#Cc2ccccc2)cc1
87 to 90 | CCCCOc1ccc(C(=O)N2CCCCc3sccc32)cc1
65 to 71 | O=C(O)CCCC#CCC1=CC(O)CC1=O (stereo unspecified)
77 to 79 | Nc1ccccc1N(C=O)CCCCO
163 to 165 | O=C1CCC(N2Cc3c(OCc4ccc(CN5CCc6ncccc6C5)cc4)cccc3C2=O)C(=O)N1 (stereo unspecified)

melting point [°C] | Compound
< 20 | CCOC(=O)C(C)(C)Oc1ccc(-c2ccc(CCNC(C)=O)cc2)cc1
220 to 225 | COc1ccc(C(=CC(=O)N2CCOCC2)c2ccc(NC(=O)NS(=O)(=O)c3ccc(C)cc3)cc2)cc1OC
170 to 175 | CCOC(=O)C(CBr)=C1C(=N)CCCC1=O
126 | Cc1ccc2c(c1)C(O)(c1ccccn1)CC(C)(C)CO2 (stereo unspecified)
162 to 163 | N#CCOc1ccc2cc(-c3cc4ccccc4o3)ccc2c1Cl
84 | O=S(=O)(c1ccc(Cl)cc1)N1CCCC1c1cccs1 (racemic)
166 | CCc1cccc(C)c1CNc1nc(CO)cn2c(C)c(C)nc12
250 to 252 | CS(=O)c1nccc(-c2nc(=O)c3ccccc3s2)n1 (stereo unspecified)
58 to 59 | CCCCCCC(C)(C)c1ccc(Br)c(OCc2ccccc2)c1
196 to 198 | CN1CCN(C2=Cc3cc(Cl)ccc3C(=CC#N)c3ccccc32)CC1
> 230 | CSc1nn2c(N)c3c(nc2c1S(=O)(=O)c1ccccc1)CCC3
118 | N[C@@H](CC(=O)N1CCn2c(nnc2C(F)(F)F)C1)Cc1cc(F)c(F)cc1F
133 to 135 | CCCCOc1ccc(Nc2cc(Nc3ccc4c(c3)OCCO4)c(F)cn2)cc1
199 to 201 | CC(C)C[C@H](NC(=O)[C@@H]1CCCN1c1nc2ccccc2c(=O)o1)C(=O)NCC(N)=O
> 360 | Cc1nc2cc(C34CC5CC(CC(C5)C3)C4)cc(-c3ccc(C=C4SC(=S)NC4=O)cc3)c2o1
191 to 193 | CC1COC(=O)N1c1cc(-c2ncnc(Nc3cccc(Cl)c3)n2)ccn1 (stereo unspecified)
115 to 121 | CCC(O)c1cc(C2(c3cccc(-c4cccnc4F)c3)N=C(N)N(C)C2=O)cn1CC (stereo unspecified)
215 to 217 | Cn1cc([C@H]2CC[C@@H](N3CCN(c4cc(Br)cc5cccnc45)CC3)CC2)c2cc(F)ccc21
199 to 201 | CC(C)CN(CCCc1ccc(F)cc1)[C@H]1CC[C@H](c2ccc3[nH]c(=O)oc3c2)CC1
93 to 95 | Cc1nc(NCC(C)C)nc(N2CCc3ccccc3C2C)c1C (stereo unspecified)
141 to 143 | O=S1(=O)NCN(C2CC2)c2c1ccc(F)c2Cl

Compound | melting point [°C]
CN1Cc2c(C#CC(C)(C)O)ncn2-c2cccc(Br)c2C1=O | 207 to 208
Cc1cc(C(=O)NCCO)ncc1C(c1c(F)ccc(F)c1F)S(=O)(=O)CCC(F)(F)F (stereo unspecified) | 146 to 147
CN(C)CC(=O)N(C)c1cccc(-c2ccnc3c(C(=O)c4ccccc4)cnn23)c1 | 166 to 168
CCc1nn(COC(N)=O)c(CC)c1Cc1cc(Cl)cc(Cl)c1 | 153 to 155
Cc1ccc(S(=O)(=O)C(CCl)Sc2ccc(Br)cc2)cc1 (stereo unspecified) | 82.5 to 84
Cc1c(C2=CCC(c3ccccc3)(N(C)C)CC2)n(CC2CO2)c2ccccc12 (stereo unspecified) | 147 to 150
